# Test results published in ChEMBL document CHEMBL1155049, “Synthesis and cytotoxic activity of benzopyran-based platinum(II) complexes” (Bioorg Med Chem Lett, 2008).
# Assays:
# Format in all cases: functional, cell-based
# MDA-MB-231 = assay: Cytotoxicity against estrogen receptor deficient human MDA-MB-231 cells after 72 hrs by MTT assay; conditions: MDA-MB-231, 72 h
# MDA-MB-468 = assay: Cytotoxicity against estrogen receptor deficient human MDA-MB-468 cells after 72 hrs by MTT assay; conditions: MDA-MB-468, 72 h
# MCF7 = assay: Cytotoxicity against human MCF7 cells expressing estrogen receptor after 72 hrs by MTT assay; conditions: MCF7, 72 h
# [1] = Cytotoxicity against estrogen receptor deficient human MDA-MB-436 cells after 72 hrs by MTT assay; conditions: MDA-MB-436, 72 h
structure (smiles),measurement,setting,value
COc1ccc2c(c1)OC(C)(C)[C@@H](c1ccccc1)[C@@H]2c1ccc(OCCCCCCNCCCc2ccccn2)cc1,IC50,MDA-MB-231,18.7 µM
same,IC50,MDA-MB-468,7.61 µM
same,IC50,MCF7,15.6 µM
same,IC50,[1],15.7 µM
